Experimental data published in patent publication US20230203029A1 (priority 2020, published 2023).
Like-named read-outs stand apart in the source and are kept apart here.

What was measured:
[1] = biological target: T1, recombinant human MERTK expressed in live cells (HEK 293, MERTK-Nanoluc fusion vector) (Homo sapiens, UniProt Q12866); test: Assay 2 MERTK cellular target engagement (NanoBRET TE) assay; format: cell-based; conditions: HEK 293 cells, tracer K9, 2 h at 37° C.; read-out: Assay 2 Cell TE MER IC50
T1 construct: host or cells: HEK 293
T1 sequence (Q12866 21-999): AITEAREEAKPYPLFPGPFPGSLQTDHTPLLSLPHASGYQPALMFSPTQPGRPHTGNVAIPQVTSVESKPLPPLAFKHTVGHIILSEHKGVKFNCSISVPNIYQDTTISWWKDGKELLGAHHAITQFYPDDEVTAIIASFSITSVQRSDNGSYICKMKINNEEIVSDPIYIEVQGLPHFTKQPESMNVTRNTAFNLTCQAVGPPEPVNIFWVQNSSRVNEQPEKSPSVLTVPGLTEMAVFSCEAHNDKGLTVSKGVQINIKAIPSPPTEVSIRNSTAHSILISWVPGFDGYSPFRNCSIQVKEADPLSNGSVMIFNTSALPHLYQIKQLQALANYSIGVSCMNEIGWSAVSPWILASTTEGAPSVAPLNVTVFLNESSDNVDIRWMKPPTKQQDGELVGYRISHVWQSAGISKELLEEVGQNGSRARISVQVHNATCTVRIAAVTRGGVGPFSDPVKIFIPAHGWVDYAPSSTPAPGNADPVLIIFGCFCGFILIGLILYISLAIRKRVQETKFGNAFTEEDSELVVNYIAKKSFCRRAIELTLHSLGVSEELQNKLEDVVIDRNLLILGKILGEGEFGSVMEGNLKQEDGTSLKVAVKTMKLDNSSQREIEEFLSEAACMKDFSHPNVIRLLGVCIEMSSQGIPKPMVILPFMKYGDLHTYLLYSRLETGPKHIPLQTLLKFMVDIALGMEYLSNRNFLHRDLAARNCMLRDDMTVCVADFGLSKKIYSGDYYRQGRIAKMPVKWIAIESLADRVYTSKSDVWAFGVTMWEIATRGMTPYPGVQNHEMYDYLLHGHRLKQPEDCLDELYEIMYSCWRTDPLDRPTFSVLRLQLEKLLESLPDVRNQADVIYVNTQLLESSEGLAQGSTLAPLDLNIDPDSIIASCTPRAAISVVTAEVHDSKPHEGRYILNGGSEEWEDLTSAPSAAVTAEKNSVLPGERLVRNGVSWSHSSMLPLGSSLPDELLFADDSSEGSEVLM

[2] = biological target: T2, recombinant human AXL expressed in live cells (HEK, AXL-Nanoluc fusion vector) (Homo sapiens, UniProt P30530); test: Assay 3 AXL cellular target engagement (NanoBRET TE) assay; format: cell-based
T2 construct: host or cells: HEK
T2 sequence (P30530 26-894): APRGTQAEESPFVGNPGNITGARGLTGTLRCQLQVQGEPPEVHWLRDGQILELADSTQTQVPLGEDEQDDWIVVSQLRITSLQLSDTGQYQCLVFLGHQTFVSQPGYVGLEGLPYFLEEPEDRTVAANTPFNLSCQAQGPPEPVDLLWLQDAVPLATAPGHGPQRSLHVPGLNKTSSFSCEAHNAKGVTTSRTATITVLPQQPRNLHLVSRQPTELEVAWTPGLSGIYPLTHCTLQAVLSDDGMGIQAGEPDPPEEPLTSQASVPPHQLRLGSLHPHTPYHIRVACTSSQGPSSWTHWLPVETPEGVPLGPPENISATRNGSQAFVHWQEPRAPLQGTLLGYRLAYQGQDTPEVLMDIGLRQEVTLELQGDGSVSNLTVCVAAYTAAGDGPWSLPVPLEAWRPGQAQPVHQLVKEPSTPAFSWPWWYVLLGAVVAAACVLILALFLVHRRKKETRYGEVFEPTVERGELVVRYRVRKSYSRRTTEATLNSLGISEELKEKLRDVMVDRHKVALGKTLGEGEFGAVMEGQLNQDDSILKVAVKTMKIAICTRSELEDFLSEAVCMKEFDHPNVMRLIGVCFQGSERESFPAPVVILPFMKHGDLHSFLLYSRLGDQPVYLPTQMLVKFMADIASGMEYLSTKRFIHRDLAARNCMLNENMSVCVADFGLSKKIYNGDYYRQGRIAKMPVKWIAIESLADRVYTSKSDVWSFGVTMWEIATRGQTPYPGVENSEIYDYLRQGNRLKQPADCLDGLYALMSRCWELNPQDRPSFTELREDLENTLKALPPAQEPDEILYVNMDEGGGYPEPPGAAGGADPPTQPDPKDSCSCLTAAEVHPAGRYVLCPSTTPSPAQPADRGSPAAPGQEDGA
Description: Assay 3—AXL Cellular Target Engagement (TE) Assay
Compound affinities for recombinant human AXL expressed in live cells were assessed via the Promega NanoBRET TE assay technology. Human Embryonic Kidney (HEK) cells were transiently transfected with the AXL-Nanoluc fusion vector (Promega Cat NV1071) using Fugene HD reagent (Promega E2311). […] Incubations were conducted for 2 h at 37° C., after which 20 μl NanoGlo substrate/inhibitor mix (Promega N2161) was added to each well for 2-3 min. The plate was then read on a BMG Pherastar FSX using a NanoBRET filter to record donor emission at 450 nm and acceptor fluorophore emission at 610 nm. From this the BRET ratio (acceptor 610 nm/donor 450 nm) for each data point was calculated.

[3] = biological target: T3, human MERTK cytoplasmic domain (Homo sapiens, UniProt Q12866); test: biochemical; conditions: 30 uM ATP, read-out: Assay 1a Mer IC50 30 uM ATP
T3 construct: human MERTK cytoplasmic domain (Carna Biosciences 08-108); purchased Carna Biosciences 08-108
Description: Assay 1a—MERTK HTRF KinEASE-TK Assay
The enzymatic reaction was carried out for 30 min at room temperature. 10 μL TK Antibody-Cryptate/Streptavidin-XL665 (Cisbio 610SAXLG) was then added for 60 min, including EDTA containing detection buffer (Cisbio 62SDBRDF) to stop the reaction.

[4] = biological target: T4, human AXL cytoplasmic domain (Homo sapiens, UniProt P30530); test: Assay 1b AXL HTRF KinEASE-TK assay; format: biochemical
T4 construct: human AXL cytoplasmic domain (Thermo Fisher A31515); purchased Thermo Fisher A31515
T4 sequence (P30530 473-894 limits assumed): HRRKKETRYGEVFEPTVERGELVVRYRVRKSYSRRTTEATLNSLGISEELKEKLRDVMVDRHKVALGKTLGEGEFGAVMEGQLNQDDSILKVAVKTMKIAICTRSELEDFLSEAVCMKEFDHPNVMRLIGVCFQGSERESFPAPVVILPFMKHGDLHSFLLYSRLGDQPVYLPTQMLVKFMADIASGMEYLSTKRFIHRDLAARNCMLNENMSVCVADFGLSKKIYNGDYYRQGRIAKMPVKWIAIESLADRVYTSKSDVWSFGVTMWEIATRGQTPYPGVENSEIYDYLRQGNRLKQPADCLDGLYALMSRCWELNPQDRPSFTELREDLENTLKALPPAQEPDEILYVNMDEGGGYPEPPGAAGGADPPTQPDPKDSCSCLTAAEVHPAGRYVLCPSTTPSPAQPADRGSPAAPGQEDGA
Method in brief: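 Recombinant cytoplasmic domain (5 nM) in kinase buffer with 5 mM MgCl2, 1 mM MnCl2, 1 mM DTT, 50 nM SEB plus test compounds; reaction 30 min at room temperature. EDTA-containing detection with TK antibody-cryptate/streptavidin-XL665 for 60 min; HTRF 665/620 ratio read. IC50 from 4-parameter logistic fit with variable slope.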

[5] = biological target: T5, Ba/F3 Pro B-cell line expressing TEL-human MERTK fusion domain (Homo sapiens, UniProt Q12866); format: cell-based; conditions: cell survival, 48 h, CellTiter-Glo; read-out: TEL-MERTK Ba/F3 IC50
T5 sequence (Q12866 587-858 limits assumed): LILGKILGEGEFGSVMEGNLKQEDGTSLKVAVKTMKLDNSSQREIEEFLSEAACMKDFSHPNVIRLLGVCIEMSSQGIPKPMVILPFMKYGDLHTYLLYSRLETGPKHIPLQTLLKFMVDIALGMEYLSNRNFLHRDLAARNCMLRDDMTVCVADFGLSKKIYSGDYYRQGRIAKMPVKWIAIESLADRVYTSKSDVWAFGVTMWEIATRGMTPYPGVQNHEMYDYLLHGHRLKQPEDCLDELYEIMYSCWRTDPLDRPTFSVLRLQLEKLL
Method in brief: (§1)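 Ba/F3 cells dependent on BCR-AXL or TEL-MERTK fusion kinase (IL3-free; IL3 only for control lines) treated with compound 48 h at 37 °C, 0.25% DMSO. Viability by CellTiter-Glo luminescence; IC50 for half-maximal inhibition of survival from 4-parameter variable-slope fit.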

[6] = biological target: T6, Ba/F3 Pro B-cell line expressing BCR-human AXL kinase domain fusion protein (Homo sapiens, UniProt P30530); test: Assay 5 Ba/F3 cell survival assay, BCR-Axl; format: cell-based; conditions: read-out: BCR-Axl Ba/F3 IC50, 48 h, CellTiter-Glo
T6 construct: P11274 (Breakpoint cluster region protein)
T6 sequence (P30530 536-807 limits assumed): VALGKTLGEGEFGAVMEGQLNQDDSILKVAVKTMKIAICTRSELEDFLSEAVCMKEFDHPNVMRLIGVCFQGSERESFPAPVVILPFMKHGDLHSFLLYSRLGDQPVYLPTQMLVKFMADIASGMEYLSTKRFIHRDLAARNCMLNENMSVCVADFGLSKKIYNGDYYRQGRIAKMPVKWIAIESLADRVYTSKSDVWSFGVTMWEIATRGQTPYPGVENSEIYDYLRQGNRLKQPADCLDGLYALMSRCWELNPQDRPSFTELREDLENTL
Method in brief: as §1

[7] = biological target: T7, Ba/F3 Pro B-cell line expressing TEL-human Tyro3 fusion domain (Homo sapiens, UniProt Q06418); format: cell-based; conditions: cell survival, 48 h, CellTiter-Glo
T7 sequence (Q06418 518-790 limits assumed): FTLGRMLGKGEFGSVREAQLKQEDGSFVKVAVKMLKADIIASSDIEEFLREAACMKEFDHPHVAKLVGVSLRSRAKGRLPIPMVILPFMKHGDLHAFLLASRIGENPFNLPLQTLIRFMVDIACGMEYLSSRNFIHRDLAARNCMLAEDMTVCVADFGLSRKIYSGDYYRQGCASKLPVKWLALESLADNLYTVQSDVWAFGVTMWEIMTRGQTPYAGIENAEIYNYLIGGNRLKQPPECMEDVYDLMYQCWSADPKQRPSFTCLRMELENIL

Structure (SMILES) | IC50 [1] [µM] | IC50 [2] [µM] | IC50 [3] [µM] | IC50 ([3]; * Maximal inhibition achieved 40%) [µM] | IC50 [4] [µM] | IC50 [5] [µM] | IC50 [6] [µM] | IC50 [7] [µM]
CC(C)n1cc(C(=O)Nc2ccc(Nc3ccnc4cnc(N5CCNCC5)cc34)cc2)c(=O)n(-c2ccccc2)c1=O [Example 1.3, 1-isopropyl-2,4-dioxo-3-phenyl-N-[4-[(6-piperazin-1-yl-1,7-naphthyridin-4-yl)amino]phenyl]pyrimidine-5-carboxamide] | 0.26 | 0.0248 | 0.182 | – | – | – | – | –
Cc1c(C(=O)Nc2ccc(Nc3ccnc4cnc(N5CCNCC5)cc34)cc2)c(=O)n(-c2ccccc2)n1C [Example 1.4, 1,5-dimethyl-3-oxo-2-phenyl-N-[4-[(6-piperazin-1-yl-1,7-naphthyridin-4-yl)amino]phenyl]pyrazole-4-carboxamide] | 2.19 | – | 0.033 | – | – | – | – | –
O=C(Nc1ccc(Nc2ccnc3cnc(N4CCC(O)CC4)cc23)cc1)c1cccn(-c2ccccc2)c1=O [Example 2, N-[4-[[6-(4-hydroxy-1-piperidyl)-1,7-naphthyridin-4-yl]amino]phenyl]-2-oxo-1-phenyl-pyridine-3-carboxamide] | 0.0466 | 0.173 | 0.059 | – | – | – | – | –
Cn1cc(-c2cc3c(Nc4ccc(NC(=O)c5cccn(-c6ccccc6)c5=O)cc4)ccnc3cn2)cn1 [Example 4, N-[4-[[6-(1-methylpyrazol-4-yl)-1,7-naphthyridin-4-yl]amino]phenyl]-2-oxo-1-phenyl-pyridine-3-carboxamide] | 2.9 | – | – | 0.003 | – | – | – | –
CN1CCN(c2cc3c(Oc4ccc(NC(=O)c5cccn(-c6ccc(F)cc6)c5=O)cc4)ccnc3cn2)CC1 [Example 35, 1-(4-fluorophenyl)-N-[4-[[6-(4-methylpiperazin-1-yl)-1,7-naphthyridin-4-yl]oxy]phenyl]-2-oxo-pyridine-3-carboxamide] | – | – | 0.004 | – | 0.06 | 0.014 | 0.008 | 0.116

More lines, main results first:

IC50 [1] [µM] | IC50 [2] [µM] | IC50 [3] [µM] | IC50 ([3]; * Maximal inhibition achieved 40%) [µM] | IC50 [4] [µM] | Structure (SMILES) | IC50 [5] [µM] | IC50 [6] [µM] | IC50 [7] [µM]
0.175 | 0.145 | 0.068 | – | – | O=C(Nc1ccc(Nc2ccnc3cnc(N4CCNCC4)cc23)cc1)c1cccn(-c2ccccc2)c1=O [Example 1, 2-oxo-1-phenyl-N-[4-[(6-piperazin-1-yl-1,7-naphthyridin-4-yl)amino]phenyl]pyridine-3-carboxamide] | – | – | –
1.75 | 0.0029 | 0.075 | – | – | CC(C)n1cc(C(=O)Nc2ccc(Nc3ccnc4cnc(N5CCNCC5)cc34)cc2)c(=O)n(-c2ccc(F)cc2)c1=O [Example 1.1, 3-(4-fluorophenyl)-1-isopropyl-2,4-dioxo-N-[4-[(6-piperazin-1-yl-1,7-naphthyridin-4-yl)amino]phenyl]pyrimidine-5-carboxamide] | – | – | –
0.028 | 0.114 | 0.02 | – | – | O=C(Nc1ccc(Nc2ccnc3cnc(N4CCNCC4)cc23)cc1)c1cccn(-c2ccc(F)cc2)c1=O [Example 1.2, 1-(4-fluorophenyl)-2-oxo-N-[4-[(6-piperazin-1-yl-1,7-naphthyridin-4-yl)amino]phenyl]pyridine-3-carboxamide] | – | – | –
